Target: SOS1 binding to KRAS-WT (Homo sapiens (Human), UniProt Q07889)
Assay: SOS1/KRAS WT HTRF binding assay (FRET-based protein-protein interaction assay)
Details: 40 nM GST-KRAS-WT, 40 nM His6-SOS1 exchange domain, at least two independent replicates; for IC50: read-out: SOS1/KRAS WT HTRF Binding assay pIC50 (converted)
Text: The capacity of compounds to inhibit SOS1 binding to KRAS-WT (wild-type) was quantified using a FRET-based protein-protein interaction assay. The assay is based on the transfer of energy between two fluorophores, a donor and an acceptor, when in close proximity. In this instance, the donor is a Europium-conjugated α-GST antibody that binds to GST-tagged KRAS-WT, and the acceptor is an XL665-conJugated α-His6 antibody that binds to His6-tagged SOS1. Binding of SOS1 to KRAS-WT results in an increased fluorescent signal at emission wavelength of 665 nm which can be detected on the EnVision plate reader. Compounds that inhibit binding will reduce the 665 nm signal emitted. Recombinant KRAS-WT protein (40 nM; Human KRAS, aal-188 recombinant protein with N-terminal GST-tag) and SOS1 protein (40 nM; Human SOS1 exchange domain, aa564-1049 with N-terminal 6His-tag) were mixed together in assay buffer (5 mM HEPES pH7.3, 150 mM NaCl, 10 mM EDTA, 5 mM MgCl2, 0.05% BSA, 0.0025% NP-40, 1 mM DTT and 100 mM KF) and incubated at room temperature with a dose response of compound in a 384-well low volume white plate and a final volume of 5 ul. After a 60 minute incubation, 5 ul of 4 nM anti-GST-Eu(K) (Cisbio, France) combined with 20 nM anti-6His-XL665 (Cisbio, France), diluted in assay buffer, was added to the plate. Following a further 4 h incubation at room temperature, time-resolved fluorescence was measured on the EnVision plate reader. DMSO (0.05%) and 10 μM reference compound were used to generate the Max and Min assay signals, respectively. Data was analyzed using a four-parameter logistic model to calculate IC50 values, with at least two independent replicates performed for each compound.

Sequence of SOS1 binding to KRAS-WT (Q07889 564-1049): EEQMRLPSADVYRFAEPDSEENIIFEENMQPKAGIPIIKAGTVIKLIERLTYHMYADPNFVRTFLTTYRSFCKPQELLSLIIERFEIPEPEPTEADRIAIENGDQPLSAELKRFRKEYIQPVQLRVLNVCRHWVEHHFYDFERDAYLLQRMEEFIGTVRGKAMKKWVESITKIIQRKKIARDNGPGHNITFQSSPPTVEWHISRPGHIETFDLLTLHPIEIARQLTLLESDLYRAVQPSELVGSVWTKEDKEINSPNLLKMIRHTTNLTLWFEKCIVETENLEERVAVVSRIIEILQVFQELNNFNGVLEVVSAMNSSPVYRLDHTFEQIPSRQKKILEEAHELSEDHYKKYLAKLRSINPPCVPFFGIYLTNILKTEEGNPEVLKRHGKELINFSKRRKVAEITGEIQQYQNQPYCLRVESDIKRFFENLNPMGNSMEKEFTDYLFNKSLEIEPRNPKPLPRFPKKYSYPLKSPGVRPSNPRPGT

Cc1nnc(N[C@H](C)c2cccc(C(F)(F)F)c2)c2cn(C3CCOC3)c(=O)cc12 (mixture of isomers) [Compound 8, 1-methyl-4-[[rac-(1R)-1-[3-(trifluoromethyl)phenyl]ethyl]amino]-6-tetrahydrofuran-3-yl-pyrido[3,4-d]pyridazin-7-one]
IC50: 0.234 µM

Cc1nnc(N[C@H](C)c2cccc(C(F)(F)F)c2)c2cn(C3(C)CC3)c(=O)cc12 (racemic) [Compound 14, 1-methyl-6-(1-methylcyclopropyl)-4-[[rac-(1R)-1-[3-(trifluoromethyl)phenyl]ethyl]amino] pyrido[3,4-d]pyridazin-7-one]
IC50: 0.0589 µM

CC(=O)N1CC=C(c2cc3c(N[C@H](C)c4cccc(C(F)(F)F)c4)nnc(C)c3n(C)c2=O)CC1 (racemic) [Compound 19, 3-(1-acetyl-3,6-dihydro-2H-pyridin-4-yl)-1,8-dimethyl-5-[[rac-(1R)-1-[3-(trifluoromethyl)phenyl]ethyl]amino] pyrido[2,3-d]pyridazin-2-one]
IC50: 0.0363 µM

Cc1nnc(N[C@H](C)c2cccc(C(F)F)c2)c2cc(C3CCOCC3)c(=O)n(C)c12 (racemic) [Compound 20, 1,8-dimethyl-5-[[rac-(1R)-1-[3-(difluoromethyl)phenyl]ethyl]amino]-3-tetrahydropyran-4-yl-pyrido[2,3-d]pyridazin-2-one]
IC50: 0.0933 µM

Cc1nnc(N[C@H](C)c2cccc(C(F)F)c2)c2cc(C3CCN(C)CC3)c(=O)n(C)c12 (racemic) [Compound 21, 1,8-dimethyl-3-(1-methyl-4-piperidyl)-5-[[rac-(1R)-1-[3-(difluoromethyl)phenyl]ethyl]amino] pyrido[2,3-d]pyridazin-2-one]
IC50: 0.0537 µM

Cc1nnc(NC(C)c2cccc(C(F)(F)F)c2)c2cn(C3CCCC3)c(=O)cc12 (stereo not shown) [Compound 1, 6-cyclopentyl-1-methyl-4-[1-[3-(trifluoromethyl)phenyl]ethylamino] pyrido[3,4-d]pyridazin-7-one]
SOS1/KRAS WT HTRF Binding assay pIC50: 6.72

Cc1nnc(N[C@H](C)c2cccc(C(F)(F)F)c2)c2cn(C3CCCC3)c(=O)cc12 [Compound 2, 6-cyclopentyl-1-methyl-4-[[(1R)-1-[3-(trifluoromethyl)phenyl]ethyl]amino] pyrido[3,4-d]pyridazin-7-one]
SOS1/KRAS WT HTRF Binding assay pIC50: 7.11

CCn1cc2c(N[C@H](C)c3cccc(C(F)(F)F)c3)nnc(C)c2cc1=O [Compound 3, 6-ethyl-1-methyl-4-[[(1R)-1-[3-(trifluoromethyl)phenyl]ethyl]amino] pyrido[3,4-d]pyridazin-7-one]
SOS1/KRAS WT HTRF Binding assay pIC50: 6.46

Cc1nnc(N[C@H](C)c2cccc(C(F)(F)F)c2)c2cn(CC3CC3)c(=O)cc12 [Compound 4, 6-(cyclopropylmethyl)-1-methyl-4-[[(1R)-1-[3-(trifluoromethyl)phenyl]ethyl]amino] pyrido[3,4-d]pyridazin-7-one]
SOS1/KRAS WT HTRF Binding assay pIC50: 6.52

Cc1nnc(N[C@H](C)c2cccc(C(F)(F)F)c2)c2cn(CC3COC3)c(=O)cc12 [Compound 5, 1-methyl-6-(oxetan-3-ylmethyl)-4-[[(1R)-1-[3-(trifluoromethyl)phenyl]ethyl]amino] pyrido[3,4-d]pyridazin-7-one]
SOS1/KRAS WT HTRF Binding assay pIC50: 6.52

Cc1nnc(N[C@H](C)c2cccc(C(F)(F)F)c2)c2cn(CC3(C)COC3)c(=O)cc12 [Compound 6, 1-methyl-6-[(3-methyloxetan-3-yl)methyl]-4-[[(1R)-1-[3-(trifluoromethyl)phenyl]ethyl]amino] pyrido[3,4-d]pyridazin-7-one]
SOS1/KRAS WT HTRF Binding assay pIC50: 6.34

Cc1nnc(N[C@H](C)c2cccc(C(F)(F)F)c2)c2cn(C(C)C)c(=O)cc12 [Compound 7, 6-isopropyl-1-methyl-4-[[(1R)-1-[3-(trifluoromethyl)phenyl]ethyl]amino] pyrido[3,4-d]pyridazin-7-one]
SOS1/KRAS WT HTRF Binding assay pIC50: 7.02

Cc1nnc(NC(C)c2cccc(C(F)(F)F)c2)c2cc(O[C@H]3CCOC3)cnc12 (stereo partly drawn) [Compound 9, 8-methyl-3-[(3S)-tetrahydrofuran-3-yl]oxy-N-[1-[3-(trifluoromethyl)phenyl]ethyl]pyrido[2,3-d]pyridazin-5-amine]
SOS1/KRAS WT HTRF Binding assay pIC50: 6.60

Cc1nnc(N[C@H](C)c2cccc(C(F)(F)F)c2)c2cc(O[C@H]3CCOC3)cnc12 [Compound 10, 8-methyl-3-[(3S)-tetrahydrofuran-3-yl]oxy-N-[(1R)-1-[3-(trifluoromethyl)phenyl]ethyl]pyrido[2,3-d]pyridazin-5-amine]
SOS1/KRAS WT HTRF Binding assay pIC50: 6.76

Cc1nnc(N[C@H](C)c2cccc(C(F)F)c2)c2cc(C3=CCCC3)c(=O)n(C)c12 [Compound 11, 3-(cyclopenten-1-yl)-5-[[(1R)-1-[3-(difluoromethyl)phenyl]ethyl]amino]-1,8-dimethyl-pyrido[2,3-d]pyridazin-2-one]
IC50: 0.178 µM

Cc1nnc(N[C@H](C)c2cccc(C(F)(F)F)c2)c2cc(C3=CCCC3)c(=O)n(C)c12 [Compound 12, 3-(cyclopenten-1-yl)-1,8-dimethyl-5-[[(1R)-1-[3-(trifluoromethyl)phenyl]ethyl]amino] pyrido[2,3-d]pyridazin-2-one]
SOS1/KRAS WT HTRF Binding assay pIC50: 6.96

Cc1nnc(N[C@H](C)c2cccc(C(F)(F)F)c2)c2cn(C3CC3)c(=O)cc12 [Compound 13, 6-cyclopropyl-1-methyl-4-[[(1R)-1-[3-(trifluoromethyl)phenyl]ethyl]amino] pyrido[3,4-d]pyridazin-7-one]
SOS1/KRAS WT HTRF Binding assay pIC50: 7.20

Cc1nnc(NC(C)c2cccc(C(F)(F)F)c2)c2nc(O[C@H]3CCOC3)ccc12 (stereo partly drawn) [Compound 15, 5-methyl-2-[(3S)-tetrahydrofuran-3-yl]oxy-N-[1-[3-(trifluoromethyl)phenyl]ethyl]pyrido[2,3-d]pyridazin-8-amine]
SOS1/KRAS WT HTRF Binding assay pIC50: 6.17

Cc1nnc(N[C@H](C)c2cccc(C(F)(F)F)c2)c2cc(C3=CCCNC3)c(=O)n(C)c12 [Compound 16, 1,8-dimethyl-3-(1,2,3,6-tetrahydropyridin-5-yl)-5-[[(1R)-1-[3-(trifluoromethyl)phenyl]ethyl]amino] pyrido[2,3-d]pyridazin-2-one]
SOS1/KRAS WT HTRF Binding assay pIC50: 7.30

CC(=O)N1CCCC(c2cc3c(N[C@H](C)c4cccc(C(F)(F)F)c4)nnc(C)c3n(C)c2=O)C1 (stereo partly drawn) [Compound 18, 3-(1-acetyl-3-piperidyl)-1,8-dimethyl-5-[[(1R)-1-[3-(trifluoromethyl)phenyl]ethyl]amino] pyrido[2,3-d]pyridazin-2-one]
SOS1/KRAS WT HTRF Binding assay pIC50: 7.36

CC(=O)N1CCC(c2cc3c(N[C@H](C)c4cccc(C(F)F)c4)nnc(C)c3n(C)c2=O)CC1 [Compound 22, 3-(1-acetyl-4-piperidyl)-5-[[(1R)-1-[3-(difluoromethyl)phenyl]ethyl]amino]-1,8-dimethyl-pyrido[2,3-d]pyridazin-2-one]
IC50: 0.0355 µM

Cc1nnc(N[C@H](C)c2cccc(C(F)(F)F)c2F)c2cc(C3CCNCC3)c(=O)n(C)c12 [Compound 23, 5-[[(1R)-1-[2-fluoro-3-(trifluoromethyl)phenyl]ethyl]amino]-1,8-dimethyl-3-(4-piperidyl)pyrido[2,3-d]pyridazin-2-one]
SOS1/KRAS WT HTRF Binding assay pIC50: 7.24
